This is an account of results in patent US10052301B2, “Derivatives of propane diyl dicinnamate” (ORX PHARMACEUTICAL CORPORATION, priority 2009, dated 2018).

Read-outs that look alike come from different tables or passages of the source.

As usually defined, the EC50 is the concentration that produces a half-maximal response.

One test relates to B16-BL6. The settings on record: Banskota et al., J Ethnopharmacol 2002; read-out: EC50 against B16-BL6; cited from earlier work.
Test [1] relates to HCT116 (human colon carcinoma cells). Kind of test: MTT cell proliferation and viability assay, HCT116. It counts as cell-based. The settings on record: for IC50: HCT-116, Table 3, 72 h, read-out: Inhibition Concentration (IC50) μM HCT116 (Colon); for EC50: HCT-116, Table 2, 72 h. The method, then: (§1) Normal human fibroblast cell lines (GM9503 and GM8399) and human carcinoma cell lines MCF-7, A549, HCT116, SKOV-3 and PC-3 were maintained in DMEM (Dulbeco's Modified Essential Medium) supplemented with 10% FBS (Fetal Bovine Serum). In addition, murine leukemia MDAY-D2 cells were maintained in RPMI 1640 media supplemented with 5% FBS. All media were supplemented with 100 […] (all from Hyclone, Logan, Utah). Cells were incubated in a humidified air atmosphere containing 5% CO2 at 37° C.
(§2) Cell growth and viability were measured using the 3-(4,5-dimethythiazol-2-yl)-2,5-diphenyl tetrazolium bromide (MTT) reduction assay. MTT reagent (Sigma, St. Louis, Mo.) was prepared at 5 mg/ml in ddH2O (5× solution), filter sterilized and stored in the dark at −20° C.
(§3) To determine the optimal number of cells to seed per well, preliminary experiments were conducted examining increasing cell densities in 96 well plates. Cell were seeded at various densities and examined under the microscope after 96 h. Based on these experiments and growth curve analyses, optimal cell densities were selected for each cell line. In brief, exponentially growing cells were harvested and 100 μL of cell suspension containing approximately 2000 cells was plated in 96-well microtiter plates. After 24 hours of incubation to allow for cell attachment, cells were treated with varying concentrations of test samples in medium (60 μL/well) supplemented with 5% FBS and incubated for 72 h at 37° C. under 5% CO2. Three hours after the addition of MTT, the amount of formazan formed was measured spectrophotometrically at 570 nm with a Spectramax Plus 384 plate reader.
(§4) To assess the effects of the novel compounds on growth and viability, GM9503 (normal human fibroblast cells; 2.08×10^3 cells/well), GM8399 (normal human fibroblast cells; 2.04×10^3 cells/well), A549 (human lung carcinoma cells; 2.05×10^3 cells/well), HCT116 (human colon carcinoma cells; 2.19×10^3 cells/well), MCF-7 (human breast carcinoma cells; 2.19×10^3 cells/well), SKOV-3 (human ovarian carcinoma cells; 2.10×10^3 cells/well), PC-3 (human prostate carcinoma cells; 2.08×10^3 cells/well) and MDAY-D2 (murine leukemia cells; 2.5×10^3 cells/well) were seeded in 96 well plates in supplemented medium. Twenty-four hours post-seeding, cells were treated with either DMEM supplemented with 5% FBS (as a control) or with compounds (IIb), (Ie) and (Id) at increasing concentrations. After incubation for 72 h, cell growth and viability were measured. Each compound was tested in triplicate and the data shown in Tables 2-4 represent the mean of viable cells compared to medium control.

Test [2] has as its system MDAY-D2 (murine leukemia cells). Put plainly: MTT cell proliferation and viability assay, MDAY-D2. It counts as cell-based. How it is done: as §1, §2, §3, §4
For test [3], the system named is SKOV-3 (human ovarian carcinoma cells). Put plainly: MTT cell proliferation and viability assay, SKOV-3. It is filed as cell-based. The following applies: SK-OV-3, Table 3, 72 h, read-out: Inhibition Concentration (IC50) μM SKOV-3 (Ovarian). The method, then:
as §1, §2, §3, §4

Test [4] has as its system A549 (human lung carcinoma cells). Kind of test: MTT cell proliferation and viability assay, A549. It counts as cell-based. The settings on record: for EC50: Table 2, 72 h; for IC50: Table 3, 72 h, read-out: Inhibition Concentration (IC50) μM A549 (Lung). How it is done:
as §1, §2, §3, §4

In test [5] the test system is GM8399 (normal human fibroblast cells). Kind of test: MTT cell proliferation and viability assay, GM8399. The settings on record: Table 4, comparative toxicity, 72 h, read-out: Inhibition Concentration (IC50) μM GM8399 (normal human fibroblast). It is filed as cell-based. The method, then: as §1, §2, §3, §4
Test [6] concerns Human colon carcinoma cell line HCT116. Put plainly: Mechanism of action: microscopy of treated HCT116 cells over time. It counts as cell-based. The following applies: 30 μM; for cell morphology (mechanism of cell death): imaged at 2-16 h, 63x magnification. How it is done:
Human colon carcinoma cell line HCT116 was treated with compounds (IIb), (Ie) and (Id) and observed over a time period to determine the mechanism of cell death. The experiment was conducted as follows:
HCT116 cells were seeded and treated with each compound. At each time point, the cells were imaged using a neutral microscope at 63× magnification prior to fixing. The time points were 2, 4, 6, 8, 12, and 16 hours.
This may potentially be caused by a population doubling at this time-point.

In the next test the test system is B-16 melanoma cell line. Kind of test: [3H]-thymidine incorporation, in vitro anticancer activity. It is filed as cell-based. The following applies: B16, 24 h + 24 h incubation. The method, then: The cell lines were maintained in EMEM medium supplemented with 10% FCS, 0.1% sodium bicarbonate and 12 mM glutamine. In a typical procedure, 1×10^4 cells were seeded into each of 96 well plate in 90 μL volume of medium. The plates were incubated for 24 h in the presence of CO2 to allow for cell attachment. After 24 h, test compounds were evaluated at five 10 fold dilutions from 1:10, 1:100, 1:1000, 1:10000 and 1:100000. To each test well 100 μL of test compound solution was added and the medium with vehicle was added to control wells and the plates were further incubated. After 24 h of incubation, 10 μL of [3H]-thymidine was added to each well to obtain a 1 μCi concentration per well and incubated for a further 24 h. The plates were terminated, cells harvested and read by microbeta plate reader.

The subject of test [7] is GM9503 (normal human fibroblast cells). Put plainly: MTT cell proliferation and viability assay, GM9503. It counts as cell-based. The following applies: for EC50: Table 2, 72 h, read-out: Human (EC50) μM GM9503 (Normal Skin Fibroblast); for IC50: Table 4, comparative toxicity, 72 h, read-out: Inhibition Concentration (IC50) μM GM9503 (Normal human fibroblast). The method, then:
as §1, §2, §3, §4

For test [8], the system named is MCF-7 (human breast carcinoma cells). Put plainly: MTT cell proliferation and viability assay, MCF-7. It is filed as cell-based. The following applies: for EC50: MCF7, Table 2, 72 h; for IC50: MCF7, Table 3, 72 h, read-out: Inhibition Concentration (IC50) μM MCF-7 (Breast). How it is done:
as §1, §2, §3, §4

Test [9] concerns PC-3 (human prostate carcinoma cells). Kind of test: MTT cell proliferation and viability assay, PC-3. It is filed as cell-based. The following applies: Table 3, 72 h, read-out: Inhibition Concentration (IC50) μM PC-3 (Prostate). How it is done:
as §1, §2, §3, §4

Where [10] appears, read: Mus musculus, MDAY-D2, Table 2, 72 h.

Turning to `CC(=O)OC(COC(=O)/C=C/c1ccc(O)cc1)COC(=O)/C=C/c1ccc(O)cc1` [(2E,2′E)-2-acetoxypropane-1,3-diyl bis(3-(4-hydroxyphenyl)acrylate)], the EC50 in the test with B16-BL6 was 81.9 µM.
For `COc1cc(/C=C/C(=O)OCC(COC(=O)/C=C/c2ccc(O)cc2)OC(C)=O)ccc1O` (stereo not shown) [(E)-2-acetoxy-3-(((E)-3-(4-hydroxy-3-methoxyphenyl)acryloyl)oxy)propyl 3-(4-hydroxyphenyl)acrylate], the EC50 in the test on B16-BL6 is 66 µM.
For `O=C(/C=C/c1ccc(O)c(O)c1)OCc1ccccc1` [Benzyl caffeate, benzyl caffeate], the EC50 in the test on B16-BL6 is 2.03 µM.
In the case of `O=C(/C=C/c1ccc(O)c(O)c1)OCC(O)COC(=O)/C=C/c1ccc(O)c(O)c1` [Compound (IIb), (2E,2′E)-2-hydroxypropane-1,3-diyl bis(3-(3,4-dihroxyphenyl) acrylate], the IC50 in test [1] worked out at 27 µM; in [3], 15.8 µM; in test [4], 21 µM; in [5] it was 38 µM; in test [7] (Homo sapiens, Fibroblast) it was 71.2 µM; in test [8] it was 74.5 µM. Besides, the IC50 in [9] stood at 6.76 µM. The half-maximal effective concentration (EC50) in test [2] (setting [10]) worked out at 3.4 µM; in [4], 2.17 µM; in the test with B-16 melanoma cell line it was 6.12 µM; in test [7] (Homo sapiens, Fibroblast), 57.9 µM; in test [8], 1 µM. Also, the “relative aggressiveness of apoptosis induction” value in test [6] (compared among (IIb), (Ie), (Id)) is listed as “the most aggressive”. Moreover, the “cell morphology (mechanism of cell death)” value (“cell morphology” for short) in test [6] is listed as “exhibited the characteristic membrane blebbing morphology commonly seen during apoptosis”.
Turning to `COc1ccc(/C=C/C(=O)OCC(O)COC(=O)/C=C/c2ccccc2)cc1OC` (stereo not shown) [Compound (Id), (E)-3-(cinnamoyloxy)-2-hydroxypropyl 3-(3,4-dimethoxyphenyl) acrylate], the EC50 in [1] was determined as 102 µM; in [2] (setting [10]) it was 5 µM; in test [4], 0.59 µM; in the test with B-16 melanoma cell line, 1.08 µM; in [8], 72.2 µM. Also, the IC50 amounted to 11.5 µM in [1]; 22 µM in test [3]; 18.2 µM in [4]; 16 µM in test [5]; 60 µM in [7] (Homo sapiens, Fibroblast); 85.2 µM in [8]. Moreover, the IC50 in test [9] was 9.07 µM. Further, in test [6], the “cell morphology” value was “exhibited the characteristic membrane blebbing morphology commonly seen during apoptosis”.
Consider `O=C(/C=C/c1ccccc1)OCC(O)COC(=O)/C=C/c1ccc(O)c(O)c1` (stereo not shown) [Compound (Ie), (E)-3-(cinnamoyloxy)-2-hydroxypropyl 3-(3,4-dihydroxypheyl)acrylate], for which the EC50 was found to be 59.2 µM in test [1], 1.5 µM in test [2] (setting [10]), 0.64 µM in [4] and 25.9 µM in test [8]. For the same molecule, the IC50 in [1] was 27.9 µM; in test [3], 16.5 µM; in [4], 33.2 µM; in test [5], 23 µM; in [7] (Homo sapiens, Fibroblast), 37 µM; in test [8], 33 µM. The IC50 in test [9] was 9.04 µM. Also, the “cell morphology” value in test [6] is on record as “exhibited the characteristic membrane blebbing morphology commonly seen during apoptosis”.
`C[S+](C)[O-]` [DMSO]: the EC50 in test [2] (Table 2, 72 h) is 43.6 µM; in test [7], 20.3 µM.
For the molecule `O=C(O)/C=C/c1ccc(O)c(O)c1` [caffeic Acid, caffeic acid, reference compound], the IC50 in test [5] came out at 24 µM; in test [7] (Homo sapiens, Fibroblast), 22 µM.
In the case of `O=C(/C=C/c1ccc(O)c(O)c1)OCC=Cc1ccccc1` [cinnamyl caffeate], in the test on B16-BL6, the concentration for a half-maximal effect (EC50) was 1.92 µM.
With `CC(=O)O[C@H]1C(=O)[C@@]2(C)[C@H]([C@H](OC(=O)c3ccccc3)[C@]3(O)C[C@H](OC(=O)[C@H](O)[C@@H](NC(=O)c4ccccc4)c4ccccc4)C(C)=C1C3(C)C)[C@]1(OC(C)=O)CO[C@@H]1C[C@@H]2O` [paclitaxel, reference compound], the IC50 came to 0.59 µM in [1]; 0.75 µM in [3]; 0.69 µM in test [4]; 2.1 µM in test [5]; 0.7 µM in test [7] (Homo sapiens, Fibroblast); 11.7 µM in [8]. Further, the IC50 in test [9] came out at 1.32 µM.
Turning to `O=C(/C=C/c1ccc(O)c(O)c1)OCCc1ccccc1` [phenethyl caffeate], in the test with B16-BL6, the concentration for a half-maximal effect (EC50) is 3.16 µM.
